{"source": "patent US20230302014A1", "about": "“USES OF GLUCOCORTICOID RECEPTOR (GR) ANTAGONIST AND ANDROGEN RECEPTOR (AR) DEGRADER COMBINATIONS” (ORIC Pharmaceuticals, Inc., priority 2020, published 2023)", "tested_on": "AR and GR target genes in CWR22PC cells", "assay": "End of study (EOS) biomarker analysis by RT-qPCR", "type": "cell-based, Human", "conditions": "CSS media, day 21 EOS, 0.1 nM R1881 + 1 µM ARV-110, + 30 nM dexamethasone, + 0.5 µM compound 1", "procedure": "CWR22PC cells were seeded at a density of 2 × 10^5 cells/well in 6-well plates (Corning# 3516) in 2 mL of RPMI-1640 media supplemented with 10% charcoal-stripped serum (CSS) in duplicate. 24 hours later, cells were treated with 100 pM R1881, 30 nM dexamethasone, 0.5 µM compound 1, 1 µM of ARD1 or ARD2, or combinations thereof as indicated. Fresh media containing the indicated treatment was replaced every 5-7 days. Cell supernatant was collected on Day 12 and 19 and stored at -80° C. for PSA AlphaLISA assay. Cell images were taken on Day 12 and 19 using Leica DMi8 microscope (LEICA MICROSYSTEMS, INC. IL) with a 10X magnification. Cells were then trypsinized and cell numbers in each treatment group were counted three times, average counts were plotted with GraphPad Prism 8. Cell pellets were washed once with 1XPBS and then lysed in 600 µL RLT RNA lysis buffer and stored at -80° C. RNA was extracted for end of study (EOS) biomarker analysis for which the detailed procedures are described in the section RNA Extraction and RT-qPCR analysis.\nAdherent cells or cell pellets harvested for mRNA analysis were first washed once with PBS and then resuspended in 600 µL of RLT lysis buffer (Qiagen Inc.) supplemented with 1% of betamercaptoethanol. RNA was extracted by QIAcube using the RNeasy Mini QIAcube kit (Qiagen#74116) according to manufacturer’s instructions. The extracted RNA samples were then quantified using a Nanodrop 8000 Spectrophotometer. RT-qPCR reactions were set up in triplicate using 3 µL of 3 ng/ µL of RNA in 7 µL of pre-mixed SensiFAST™ SYBR No-ROX One-Step Kit reagents (BIOLINE# BIO-98005). The RT-qPCR reactions were run on a Bio-Rad CFX384 Real-Time PCR System and data was plotted with GraphPad Prism 8 software.\nCWR22PC cells were seeded at a density of 2 × 10^5 cells/well in 6-well plates (Corning# 3516) in 2 mL of RPMI-1640 media supplemented with 10% charcoal-stripped serum (CSS) in duplicate. […] Cells were then trypsinized and cell numbers in each treatment group were counted three times, average counts were plotted with GraphPad Prism 8. […]", "data": [{"smiles": "N#Cc1ccc(O[C@H]2CC[C@H](NC(=O)c3ccc(N4CCC(CN5CCN(c6cc7c(cc6F)C(=O)N(C6CCC(=O)NC6=O)C7=O)CC5)CC4)nn3)CC2)cc1Cl", "note": "(stereo partly drawn) [ARV-110, N-[trans-4-(3-chloro-4-cyanophenoxy)cyclohexyl]-6-[4-[[4-[2-(2,6-dioxo-3-piperidinyl)-6-fluoro-2,3-dihydro-1,3-dioxo-1H-isoindol-5-yl]-1-piperazinyl]methyl]-1-piperidinyl]-3-pyridazinecarboxamide]", "values": [{"measurement": "R1881-induced target gene (biomarker) expression", "value": "blunts"}]}]}
